≈ marks a conversion by molar mass, not a printed value.
Tests used:
Aurora kinase A = biological target: T1, Aurora kinase A (Homo sapiens, UniProt O14965); assay: Inhibition of Aurora A
T1 sequence (O14965 whole entry): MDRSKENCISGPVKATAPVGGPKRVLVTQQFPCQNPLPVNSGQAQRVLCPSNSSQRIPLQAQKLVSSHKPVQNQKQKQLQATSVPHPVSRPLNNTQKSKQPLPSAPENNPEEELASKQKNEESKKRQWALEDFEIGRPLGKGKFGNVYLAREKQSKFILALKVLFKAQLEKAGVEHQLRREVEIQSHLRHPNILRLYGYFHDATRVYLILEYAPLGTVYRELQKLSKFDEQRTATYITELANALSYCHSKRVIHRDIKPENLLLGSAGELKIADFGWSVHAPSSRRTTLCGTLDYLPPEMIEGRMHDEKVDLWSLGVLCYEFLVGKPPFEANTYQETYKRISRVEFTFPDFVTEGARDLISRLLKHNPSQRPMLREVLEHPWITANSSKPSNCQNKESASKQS

[1] = Solubility at pH 7.0; format: physicochemical; conditions: buffer
[2] = biological target: Cyclin-dependent kinase 2/cyclin A (Homo sapiens, UniProt P24941); assay: Inhibition of CDK2/Cyclin A; format: protein-complex assay
A2780 = assay: Antiproliferative activity against human A2780 cells after 72 hrs by cell-titer-glo assay; format: functional, cell-based; conditions: A2780, 72 h

Compound | IC50 (Aurora kinase A) [nM] | solubility [1] [µM] | IC50 [2] [nM] | IC50 (A2780) [nM]
CN1CCC(Nc2ncc3c(n2)-c2c(c(C(N)=O)nn2C)CC3)CC1 | > 10000 | > 225 | 351 | 2000
CN(O)C(=O)c1nn(C)c2c1CCc1cnc(NC3CCCC3)nc1-2 | 3060 | 29 (≈ 9.93 µg/mL) | 175 | 5530
NC(=O)c1nn(-c2ccc(S(N)(=O)=O)cc2)c2c1CCc1cnc(NC3CCCC3)nc1-2 | 442 | 108 (≈ 49 µg/mL) | 5 | 1000
Cn1nc(C(N)=O)c2c1-c1nc(N)ncc1CC2 | > 10000 | > 225 | > 10000 | 2200
Cn1nc(C(N)=O)c2c1-c1nc(NCc3ccccc3)ncc1CC2 | 1000 | > 10 | 51 | 933
Cn1nc(C(N)=O)c2c1-c1nc(NCc3ccccn3)ncc1CC2 | 4640 | 123 (≈ 41.3 µg/mL) | 87 | 5120
CNC(=O)c1nn(C)c2c1CCc1cnc(NC3CCN(C(=O)c4ccccc4)CC3)nc1-2 | > 10000 | 168 (≈ 74.8 µg/mL) | 25 | 822
Cn1nc(C(N)=O)c2c1-c1nc(NCCN3CCOCC3)ncc1CC2 | > 10000 | 214 (≈ 76.5 µg/mL) | 209 | 8660
COc1ccc(CNc2ncc3c(n2)-c2c(c(C(N)=O)nn2C)CC3)cc1 | 1450 | < 1 | 58 | 4140
NC(=O)c1nn(CC(F)(F)F)c2c1CCc1cnc(NC3CCCC3)nc1-2 | > 10000 | < 1 | 5 | 370
CN1CCC(n2nc(C(N)=O)c3c2-c2nc(NC4CCCC4)ncc2CC3)CC1 | > 10000 | 181 (≈ 71.6 µg/mL) | 6 | 46
NC(=O)c1nn(CCO)c2c1CCc1cnc(NC3CCCC3)nc1-2 | 6040 | 27 (≈ 9.24 µg/mL) | 8 | 330
Cn1nc(C(N)=O)c2c1-c1nc(NC3CCCC3)ncc1CC2 | > 10000 | 13 (≈ 4.06 µg/mL) | 2 | 245
NC(=O)c1nn(-c2ccccc2)c2c1CCc1cnc(NC3CCCC3)nc1-2 | 4050 | < 1 | 20 | 480
Cn1nc(C(N)=O)c2c1-c1nc(NCc3ccc(S(C)(=O)=O)cc3)ncc1CC2 | 890 | 138 (≈ 56.9 µg/mL) | 38 | 2360
CNC(=O)c1nn(C2CCN(C)CC2)c2c1CCc1cnc(NC3CCCC3)nc1-2 | > 10000 | 182 (≈ 74.5 µg/mL) | 59 | 1590
CNC(=O)c1nn(C)c2c1CCc1cnc(NC3CCN(C(C)=O)CC3)nc1-2 | > 10000 | > 225 | 32 | > 10000
NC(=O)c1nn(Cc2ccccc2)c2c1CCc1cnc(NC3CCCC3)nc1-2 | > 10000 | < 1 | 23 | 840
Cn1nc(C(=O)N(O)Cc2ccccc2)c2c1-c1nc(NC3CCCC3)ncc1CC2 | 4560 | < 1 | 1370 | 6140
Cn1nc(C(=O)N(O)C2CCCCC2)c2c1-c1nc(NC3CCCC3)ncc1CC2 | 3840 | < 1 | 296 | 3970
COc1cccc(CNc2ncc3c(n2)-c2c(c(C(N)=O)nn2C)CC3)c1 | 1140 | 4.4 (≈ 1.6 µg/mL) | 66 | 1980

Compound | IC50 (Aurora kinase A) [nM] | solubility [1] [µM] | IC50 [2] [nM] | IC50 (A2780) [nM]
Cn1nc(C(N)=O)c2c1-c1nc(NCCO)ncc1CC2 | 4600 | > 225 | 19 | 2550
CNC(=O)c1nn(C)c2c1CCc1cnc(NC3CCCCC3)nc1-2 | > 10000 | 50 (≈ 17 µg/mL) | – | 8600
CC(CN(C)C)NC(=O)c1nn(C)c2c1CCc1cnc(NC3CCCC3)nc1-2 (configuration not stated) | > 10000 | 171 (≈ 68 µg/mL) | 1760 | > 10000
CN1CCN(c2ccc(CNc3ncc4c(n3)-c3c(c(C(N)=O)nn3C)CC4)cc2)CC1 | 1290 | 28 (≈ 12.1 µg/mL) | 17 | 1580
CN1CCN(C(=O)c2nn(C)c3c2CCc2cnc(NC4CCCC4)nc2-3)CC1 | > 10000 | 83 (≈ 32.8 µg/mL) | > 10000 | 506
Cn1nc(C(N)=O)c2c1-c1nc(NCCN3CCCCC3)ncc1CC2 | > 10000 | 182 (≈ 64.7 µg/mL) | 2490 | 7600
CNC(=O)c1nn(C)c2c1CCc1cnc(NC3CCN(C)CC3)nc1-2 | > 10000 | 220 (≈ 78.2 µg/mL) | 4590 | > 10000
Cn1nc(C(N)=O)c2c1-c1nc(NCc3ccc(Br)cc3)ncc1CC2 | 1690 | < 1 | 81 | 567
CNC(=O)c1nn(C)c2c1CCc1cnc(NC3CCCC3)nc1-2 | > 10000 | 36 (≈ 11.8 µg/mL) | 97 | > 10000
Cn1nc(C(N)=O)c2c1-c1nc(NCc3ccncc3)ncc1CC2 | 1920 | 222 (≈ 74.5 µg/mL) | 21 | 1240
CN1CCN(C(=O)N2CCC(Nc3ncc4c(n3)-c3c(c(C(N)=O)nn3C)CC4)CC2)CC1 | 4710 | > 225 | 12 | 1300
CCN1CCC(Nc2ncc3c(n2)-c2c(c(C(N)=O)nn2C)CC3)CC1 | > 10000 | 221 (≈ 78.6 µg/mL) | 149 | 2460
Cn1nc(C(N)=O)c2c1-c1nc(NCc3cccnc3)ncc1CC2 | 2310 | 138 (≈ 46.3 µg/mL) | 21 | 1390
Cn1nc(C(N)=O)c2c1-c1nc(NC3CCCCC3)ncc1CC2 | > 10000 | < 1 | 4 | 410
CC(=O)Nc1ccc(CNc2ncc3c(n2)-c2c(c(C(N)=O)nn2C)CC3)cc1 | 672 | > 10 | 13 | 903
CN(C)CCN(C)C(=O)c1nn(C)c2c1CCc1cnc(NC3CCCC3)nc1-2 | > 10000 | 189 (≈ 75.1 µg/mL) | > 10000 | 5170
CNC(=O)c1nn(C)c2c1CCc1cnc(NC3CCN(C(=O)N4CCN(C)CC4)CC3)nc1-2 | > 10000 | > 10 | 1120 | > 10000
COc1ccc(-n2nc(C(N)=O)c3c2-c2nc(NC4CCCC4)ncc2CC3)cc1 | 2310 | < 1 | 6 | 557
CC(=O)N1CCC(n2nc(C(N)=O)c3c2-c2nc(NC4CCCC4)ncc2CC3)CC1 | 1970 | 179 (≈ 75.8 µg/mL) | 7 | 70
NC(=O)c1nn(-c2ccccn2)c2c1CCc1cnc(NC3CCCC3)nc1-2 | > 10000 | 4.9 (≈ 1.84 µg/mL) | 52 | 2160
CN1CCN(c2cccc(CNc3ncc4c(n3)-c3c(c(C(N)=O)nn3C)CC4)c2)CC1 | 2140 | 210 (≈ 90.8 µg/mL) | 104 | 920

From ChEMBL document CHEMBL1157561, “Identification of potent pyrazolo[4,3-h]quinazoline-3-carboxamides as multi-cyclin-dependent kinase inhibitors” (J Med Chem, 2010)
